Assay results as given in US9682953B2, “Amide compounds, compositions and applications thereof” (Advinus Therapeutics Limited, priority 2011, dated 2017).
Where a name gives a salt, the structure may show the parent alone. Read-outs that look alike come from different tables or passages of the source.

Legend:
[1] = target: rat Fatty Acid Amide Hydrolase (FAAH) (Rattus norvegicus (Rat), UniProt P97612); experiment: FAAH in vitro fluorescence assay (AAMCA hydrolysis), rat enzyme; format: biochemical; conditions: for inhibition at 0.1 µM: read-out: rFAAH % inhibition at 100 nM, 100 nM (tier I); for inhibition at 10 µM: read-out: rFAAH % inhibition at 10 uM
Procedure: Material and Reagents: All reagents were purchased from Sigma-Aldrich unless specified. […] Chaperone protein groEL-groES in pGRO7 plasmid (Takara Bio Inc, Japan) was co-expressed with Fatty Acid Amide Hydrolase (FAAH) to improve solubility of the protein expressed in E coli. […] Briefly, the bacterial cultures in Luria Broth (2 L) were induced with arabinose (2 mM) and Isopropyl (β-D-1-thiogalactopyranoside, IPTG (1 mM), for 20 h at room temperature. The cultures were centrifuged at 1200×g for 10 min and the cell pellet was resuspended in 100 mL buffer containing of 20 mM NaPi (pH 7.4), 100 mM NaCl, Benzonase (500u), Aprotinin (1 μg/mL) and Leupeptin (1 μg/mL). Cells were lyzed by sonication (Amp 20%, Pulse 15 s×15, on ice) and the cell debris removed by centrifugation at 5000×g for 20 min. The supernatant was enriched via ultracentrifugation at 100,000×g for 1 h and the cell pellet was resuspended in 16 mL buffer containing 20 mM NaPi (pH 7.8), 500 mM NaCl, 1% Triton X-100. The resuspended cell extract was subjected to ultra-centrifugation at 100,000×g for 1 h and the enriched supernatant was used in the in vitro assay. All protein extraction steps were carried out on ice or at 4° C.
The assay was carried out in 200 μL volume in a 96-well black polystyrene plate (Greiner Bio-one, Germany). Each reaction consisted of human Fatty Acid Amide Hydrolase (FAAH) protein and 10 μM AAMCA in assay buffer containing 50 mM HEPES, 1 mM EDTA and 0.1% BSA, pH 7.4. The reaction was incubated with 2 μL of varying concentrations of inhibitor in DMSO (final concentration of DMSO 1%) with shaking for 1 min and monitored for increase in fluorescence in kinetic mode for 50 min. […] Rate of reaction as a function of the concentration of the inhibitor was used to determine the IC50 of the inhibitors. Data was analyzed using GraphPad Prism 5 (GraphPad Software Inc., San Diego, Calif.). The activity of the compounds for rat Fatty Acid Amide Hydrolase (FAAH) was evaluated as described above with rat Fatty Acid Amide Hydrolase (FAAH) protein and 10 μM AAMCA substrate.

[2] = target: human Fatty Acid Amide Hydrolase (FAAH) (Homo sapiens (Human), UniProt O00519); experiment: biochemical; conditions: for inhibition at 0.1 µM: read-out: hFAAH % inhibition at 100 nM, 100 nM (tier I)
[3] = human FAAH, read-out: hFAAH IC50

rat Fatty Acid Amide Hydrolase (FAAH), sequence (P97612 30-579): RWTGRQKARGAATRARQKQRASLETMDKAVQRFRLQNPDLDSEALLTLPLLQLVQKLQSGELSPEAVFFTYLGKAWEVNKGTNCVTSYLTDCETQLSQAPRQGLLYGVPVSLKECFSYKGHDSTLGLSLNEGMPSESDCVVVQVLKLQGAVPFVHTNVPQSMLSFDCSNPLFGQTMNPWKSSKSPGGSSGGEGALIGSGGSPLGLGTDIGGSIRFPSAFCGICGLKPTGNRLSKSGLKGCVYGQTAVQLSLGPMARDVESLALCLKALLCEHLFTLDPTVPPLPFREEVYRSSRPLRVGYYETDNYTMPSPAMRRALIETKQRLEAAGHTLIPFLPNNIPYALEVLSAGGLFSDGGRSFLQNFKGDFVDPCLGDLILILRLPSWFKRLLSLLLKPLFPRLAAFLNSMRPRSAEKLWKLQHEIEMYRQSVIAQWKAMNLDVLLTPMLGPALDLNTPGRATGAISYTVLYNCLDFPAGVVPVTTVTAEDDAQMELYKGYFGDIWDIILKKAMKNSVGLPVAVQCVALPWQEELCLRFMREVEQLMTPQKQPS
human Fatty Acid Amide Hydrolase (FAAH), sequence (O00519 30-579): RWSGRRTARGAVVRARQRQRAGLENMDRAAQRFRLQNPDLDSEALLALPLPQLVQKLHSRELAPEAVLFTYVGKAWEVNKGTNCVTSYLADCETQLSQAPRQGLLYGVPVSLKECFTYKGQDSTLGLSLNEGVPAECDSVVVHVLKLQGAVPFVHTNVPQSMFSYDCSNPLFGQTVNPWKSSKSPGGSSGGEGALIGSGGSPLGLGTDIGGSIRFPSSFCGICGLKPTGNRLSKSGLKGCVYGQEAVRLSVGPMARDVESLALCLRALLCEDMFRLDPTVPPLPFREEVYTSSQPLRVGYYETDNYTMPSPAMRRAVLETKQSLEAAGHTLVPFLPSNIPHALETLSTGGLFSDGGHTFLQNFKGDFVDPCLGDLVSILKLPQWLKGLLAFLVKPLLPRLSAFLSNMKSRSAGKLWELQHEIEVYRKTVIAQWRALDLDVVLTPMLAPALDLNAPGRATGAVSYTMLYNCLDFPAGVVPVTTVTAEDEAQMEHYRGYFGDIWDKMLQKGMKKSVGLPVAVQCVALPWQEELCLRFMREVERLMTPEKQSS

Cc1nc(Oc2cccc(C=C3CCC(NC(=O)c4cnc(N)nc4)CC3)c2)ccc1Cl (stereo not drawn) [Example 2.E-27, 2-Amino-N-[4-[[3-[(5-chloro-6-methyl-2-pyridyl)oxy]phenyl]methylene]cyclohexyl]pyrimidine-5-carboxamide]
IC50 ([1]; rat FAAH, read-out: rFAAH IC50): 17 nM
IC50 [2, 3]: 1 nM

O=C(NC1CCC(=Cc2cccc(Oc3ccc(C(F)(F)F)cn3)c2)CC1)c1cccnc1 (single isomer, unassigned; (-)) [Example 20.A-2, (−)-N-[4-[[3-[[5-(Trifluoromethyl)-2-pyridyl]oxy]phenyl]methylene]cyclohexyl]pyridine-3-carboxamide]
IC50 ([2]; hFAAH IC50): 0.7 nM

CCOc1ccc(C(=O)NC2CCC(=Cc3cccc(Oc4ccc(C(F)(F)F)cn4)c3)CC2)cn1 (stereo not drawn) [Example 6.1, 6-Ethoxy-N-[4-[[3-[[5-(trifluoromethyl)-2-pyridyl]oxy]phenyl]-methylene]cyclohexyl]pyridine-3-carboxamide]
IC50 ([1]; rat FAAH, read-out: rFAAH IC50): 8 nM
IC50 [2, 3]: 10 nM

O=C(NC1CCC(=Cc2cccc(Oc3ccc(C(F)(F)F)cn3)c2)CC1)c1ccc(-n2ccc(C(=O)O)n2)nc1 (stereo not drawn) [Example 8.A-5, 1-[5-[[4-[[3-[[5-(Trifluoromethyl)-2-pyridyl]oxy]phenyl]methylene]cyclohexyl]carbamoyl]-2-pyridyl]pyrazole-3-carboxylic acid]
inhibition at 0.1 µM ([1]; rat FAAH): 55%

CC(C)c1[nH]ncc1C(=O)NC1CCC(=Cc2cccc(Oc3ccc(C(F)(F)F)cn3)c2)CC1 (stereo not drawn) [Example 2.A-39, 5-Isopropyl-N-[4-[[3-[[5-(trifluoromethyl)-2-pyridyl]oxy]phenyl]methylene]cyclohexyl]-1H-pyrazole-4-carboxamide]
IC50 ([1]; rat FAAH, read-out: rFAAH IC50): 30 nM
IC50 [2, 3]: 63 nM

Nc1ccc(C(=O)NC2CCC(=Cc3cccc(Oc4ccc(C(F)(F)F)cn4)c3)CC2)cn1 (single isomer, unassigned; (-)) [Example 20.A-4, (−)-6-Amino-N-[4-[[3-[[5-(trifluoromethyl)-2-pyridyl]oxy]phenyl]methylene]cyclohexyl]pyridine-3-carboxamide]
IC50 ([1]; rat FAAH, read-out: rFAAH IC50): 11 nM
IC50 ([2]; read-out: hFAAH IC50): 1 nM

O=C(NC1CCC(=Cc2cccc(Oc3ccc(C(F)(F)F)cn3)c2)CC1)c1c[nH]c2ccccc12 (single isomer, unassigned; (-)) [Example 20.A-18, (−)-N-[4-[[3-[[5-(trifluoromethyl)-2-pyridyl]oxy]phenyl]methylene]cyclohexyl]-1H-indole-3-carboxamide]
IC50 [1]: 35 nM
IC50 [2, 3]: 4 nM

O=C(NC1CCC(=Cc2cccc(Oc3ccc(C(F)(F)F)cn3)c2)CC1)c1cccnc1 (single isomer, unassigned; (+)) [Example 20.A-1, (+)-N-[4-[[3-[[5-(Trifluoromethyl)-2-pyridyl]oxy]phenyl]methylene]cyclohexyl]pyridine-3-carboxamide]
inhibition at 10 µM ([1]; rat FAAH): 60%

Cc1nc(Oc2cccc(C=C3CCC(NC(=O)c4cnc(N)nc4)CC3)c2)ccc1Cl (single isomer, unassigned; (-)) [Example 20.A-22, (−)-2-Amino-N-[4-[[3-[(5-chloro-6-methyl-2-pyridyl)oxy]phenyl]methylene]cyclohexyl]pyrimidine-5-carboxamide]
IC50 [2, 3]: 1.1 nM

N#Cc1nc(Oc2cccc(C=C3CCC(NC(=O)c4ccc(N)nc4)CC3)c2)ccc1C(F)(F)F (stereo not drawn) [Example 2.E-28, 6-Amino-N-[4-[[3-[[6-cyano-5-(trifluoromethyl)-2-pyridyl]oxy]phenyl]methylene]cyclohexyl]pyridine-3-carboxamide]
IC50 ([1]; rat FAAH, read-out: rFAAH IC50): 75 nM
IC50 [2, 3]: 6 nM

O=C(NC1CCC(=Cc2cccc(Oc3ccc(C(F)(F)F)cn3)c2)CC1)c1cn[nH]c1 (single isomer, unassigned; (+)) [Example 20.A-11, (+)-N-[4-[[3-[[5-(trifluoromethyl)-2-pyridyl]oxy]phenyl]methylene]cyclohexyl]-1H-pyrazole-4-carboxamide]
inhibition at 10 µM ([1]; rat FAAH): 86%
IC50 [2, 3]: 78 nM

N#Cc1ccc(C(=O)NC2CCC(=Cc3cccc(Oc4ccc(C(F)(F)F)cn4)c3)CC2)cn1 (stereo not drawn) [Example 2.A-27, 6-Cyano-N-[4-[[3-[[5-(trifluoromethyl)-2-pyridyl]oxy]phenyl]methylene]cyclohexyl]pyridine-3-carboxamide]
inhibition at 0.1 µM ([1]; rat FAAH): 27%
IC50 [2, 3]: 55 nM

O=C(NC1CCC(=Cc2cccc(Oc3ccc(C(F)(F)F)cn3)c2)CC1)c1cncnc1 (single isomer, unassigned; (-)) [Example 20.A-20, (−)-N-[4-[[3-[[5-(Trifluoromethyl)-2-pyridyl]oxy]phenyl]methylene]cyclohexyl]pyrimidine-5-carboxamide]
IC50 ([2]; read-out: hFAAH IC50): 0.8 nM

O=C(NC1CCC(=Cc2cccc(Oc3ccc(C(F)(F)F)cn3)c2)CC1)c1cncnc1 (single isomer, unassigned; (+)) [Example 20.A-19, (+)-N-[4-[[3-[[5-(trifluoromethyl)-2-pyridyl]oxy]phenyl]methylene]cyclohexyl]pyrimidine-5-carboxamide]
IC50 ([2]; read-out: hFAAH IC50): 14.3 nM

O=C(Nc1cccnn1)C1CCC(=Cc2cccc(Oc3ccc(C(F)(F)F)cn3)c2)CC1 (stereo not drawn) [Example 1.A-1, N-Pyridazin-3-yl-4-[[3-[[5-(trifluoromethyl)-2-pyridyl]oxy]phenyl]methylene]cyclohexanecarboxamide]
IC50 [2, 3]: 17 nM

Nc1ncccc1C(=O)NC1CCC(=Cc2cccc(Oc3ccc(C(F)(F)F)cn3)c2)CC1 (stereo not drawn) [Example 2.C-5, 2-Amino-N-[4-[[3-[[5-(trifluoromethyl)-2-pyridyl]oxy]phenyl]methylene]cyclohexyl]pyridine-3-carboxamide]
IC50 [2, 3]: 37 nM

O=C(NC1CCC(=Cc2cccc(Oc3ccc(C(F)(F)F)cn3)c2)CC1)c1nc2cccnc2s1 [Example 2.D-3, N-[4-[[3-[[5-(Trifluoromethyl)-2-pyridyl]oxy]phenyl]methylene]cyclohexyl]thiazolo[5,4-b]pyridine-2-carboxamide]
inhibition at 0.1 µM ([1]; rat FAAH): 38%

O=C(NC1CCC(=Cc2cccc(Oc3ccc(C(F)(F)F)cn3)c2)CC1)c1cccnc1 (stereo not drawn) [Example 2.1, N-[4-[[3-[[5-(Trifluoromethyl)-2-pyridyl]oxy]phenyl]methylene]cyclohexyl]pyridine-3-carboxamide]
IC50 ([2]; hFAAH IC50): 2 nM

O=C(NC1CCC(=Cc2cccc(Oc3ccc(C(F)(F)F)cn3)c2)CC1)c1ccc(O)nc1 (stereo not drawn) [Example 2.C-3, 6-Hydroxy-N-[4-[[3-[[5-(trifluoromethyl)-2-pyridyl]oxy]phenyl]methylene]cyclohexyl]pyridine-3-carboxamide]
IC50 [2, 3]: 19 nM

O=C(Nc1cccnc1)C1CCC(=Cc2cccc(Oc3ccc(C(F)(F)F)cn3)c2)CC1 (stereo not drawn) [Example 1.2, N-(3-Pyridyl)-4-[[3-[[5-(trifluoromethyl)-2-pyridyl]oxy]phenyl]-methylene]cyclohexanecarboxamide hydrochloride]
IC50 ([2]; hFAAH IC50): 17 nM

Nc1ncc(C(=O)NC2CCC(=Cc3cccc(Oc4ccc(C(F)(F)F)cn4)c3)CC2)cn1 (single isomer, unassigned; (+)) [Example 20.A-9]
IC50 ([2]; read-out: hFAAH IC50): 40 nM

Cc1cc(C(=O)NC2CCC(=Cc3cccc(Oc4ccc(C(F)(F)F)cn4)c3)CC2)cnc1N (single isomer, unassigned; (+)) [Example 20.A-5, (+)-6-Amino-5-methyl-N-[4-[[3-[[5-(trifluoromethyl)-2-pyridyl]oxy]phenyl]methylene]cyclohexyl]pyridine-3-carboxamide]
IC50 [2, 3]: 247 nM

O=C(O)Cn1cc(C(=O)NC2CCC(=Cc3cccc(Oc4ccc(C(F)(F)F)cn4)c3)CC2)cn1 (stereo not drawn) [Example 8.A-2, 2-[4-[[4-[[3-[[5-(Trifluoromethyl)-2-pyridyl]oxy]phenyl]methylene]cyclohexyl]carbamoyl]pyrazol-1-yl]acetic acid]
inhibition at 0.1 µM ([2]; human FAAH): 40%

Cc1nc(Oc2cccc(C=C3CCC(NC(=O)c4cnc(N)nc4)CC3)c2)ccc1Cl (single isomer, unassigned; (+)) [Example 20.A-21, (+)-2-Amino-N-[4-[[3-[(5-chloro-6-methyl-2-pyridyl)oxy]phenyl]methylene]cyclohexyl]pyrimidine-5-carboxamide]
IC50 [2, 3]: 9 nM

Cc1[nH]nc(C(F)(F)F)c1C(=O)NC1CCC(=Cc2cccc(Oc3ccc(C(F)(F)F)cn3)c2)CC1 (stereo not drawn) [Example 2.A-36, 5-Methyl-3-(trifluoromethyl)-N-[4-[[3-[[5-(trifluoromethyl)-2-pyridyl]oxy]phenyl]methylene]cyclohexyl]-1H-pyrazole-4-carboxamide]
inhibition at 0.1 µM ([2]; human FAAH): 50%
